How the values were obtained:
rat [1] = conditions: Subchronic oral toxicity in rodents, sprague dawley, Feed, dose end: 14 week, group: systemic
rat [2] = conditions: Subchronic oral toxicity in rodents, other, Feed, dose end: 13 week, group: systemic
mouse [3] = conditions: Carcinogenicity; cd1; Oral; Feed; dose end: 18 month; group: systemic; systemic / in life observation / body weight / body weight gain + systemic / in life observation / clinical signs / fur (altered appearance…
rat [4] = conditions: Prenatal developmental toxicity study, sprague dawley, Oral, Gavage/Intubation, dose end: 21 GD
rat [5] = conditions: Prenatal developmental toxicity study, sprague dawley, Oral, Gavage/Intubation, dose end: 21 GD; remark: listed apart in the source
rat [6] = conditions: Subchronic oral toxicity in rodents, sprague dawley, Feed, dose end: 13 week, group: systemic
dog [7] = conditions: Subchronic oral toxicity in nonrodent, beagle, Feed, dose end: 13 week, group: systemic, systemic / hematology / anemia / anemia - hemolytic + systemic / hematology / erythrocyte (rbc) count differential / erythrocyte (rbc) + …
dog [8] = conditions: Chronic toxicity, beagle, Oral, Feed, dose end: 52 week, group: systemic
rat [9] = conditions: Combined chronic toxicity/carcinogenicity, sprague dawley, Oral, Feed, dose end: 24 month, group: systemic
mouse [10] = conditions: Subchronic oral toxicity in rodents, cd1, Feed, dose end: 91 day, group: systemic
rat [11] = conditions: Prenatal developmental toxicity study, sprague dawley, Oral, Feed, dose end: 22 GD
rabbit [12] = conditions: Prenatal developmental toxicity study, new zealand white, Oral, Gavage/Intubation, dose end: 28 GD
rat [13] = conditions: Subchronic oral toxicity in rodents, sprague dawley, [Not Specified], dose end: 90 day, group: systemic
rat [14] = conditions: Sub-acute repeat dose toxicity, Oral, Gavage/Intubation, dose end: 12 day, group: systemic
rat [15] = conditions: Subchronic oral toxicity in rodents, sprague dawley, Gavage/Intubation, dose end: 92 day, group: systemic
dog [16] = conditions: Sub-acute repeat dose toxicity; beagle; Oral; Gavage/Intubation; dose end: 21 day; group: systemic; systemic / in life observation / clinical signs / abnormal feces + systemic / in life observation / clinical signs / watery stools
dog [17] = conditions: Sub-acute repeat dose toxicity; beagle; Oral; Gavage/Intubation; dose end: 16 day; group: systemic; systemic / in life observation / clinical signs / abnormal feces + systemic / in life observation / clinical signs / emesis + systemic / in …
rabbit [18] = conditions: Sub-acute repeat dose toxicity, new zealand white, Oral, Gavage/Intubation, dose end: 5 day, group: systemic
rat [19] = conditions: Sub-acute repeat dose toxicity, sprague dawley, Oral, Gavage/Intubation, dose end: 15 day, group: systemic
dog [20] = conditions: Sub-acute repeat dose toxicity; beagle; Oral; Gavage/Intubation; dose end: 23 day; group: systemic; systemic / in life observation / clinical signs / abnormal feces + systemic / in life observation / clinical signs / watery stools
dog [21] = conditions: Subchronic oral toxicity in nonrodent, beagle, Gavage/Intubation, dose end: 92 day, group: systemic
[22] = systemic / in life observation / body weight / body weight gain
[23] = systemic / in life observation / body weight / body weight gain + systemic / in life observation / body weight / body weight + systemic / in…
[24] = systemic / hematology / erythrocyte (rbc) count differential / erythrocyte (rbc) + systemic / hematology / hematocrit (hct) / hematocrit (…
[25] = systemic / in life observation / body weight / body weight + systemic / in life observation / body weight / body weight gain + systemic / in…
[26] = group: developmental, systemic / in life observation / body weight / fetal weight
[27] = group: maternal, systemic / in life observation / body weight / body weight + systemic / in life observation / body weight / body weight gain + systemic / in…
[28] = systemic / pathology microscopic / spleen / hematopoietic cell proliferation + systemic / pathology microscopic / spleen / pigmentation
[29] = systemic / hematology / erythrocyte (rbc) count differential / erythrocyte (rbc) + systemic / hematology / heinz body / heinz body + …
[30] = systemic / organ weight / liver / absolute + systemic / organ weight / liver / relative to body weight + systemic / organ weight / liver / …
[31] = systemic / pathology microscopic / spleen / pigmentation
[32] = group: maternal, systemic / in life observation / body weight / body weight gain
[33] = group: developmental, developmental / developmental malformation / bone / incomplete ossification + systemic / in life observation / body weight / fetal weight
[34] = group: maternal, systemic / in life observation / body weight / body weight gain + systemic / in life observation / food consumption / food consumption + …
[35] = systemic / hematology / methemoglobin / methemoglobin
[36] = systemic / in life observation / body weight / body weight + systemic / in life observation / clinical signs / red or crusty deposits around…
[37] = systemic / in life observation / clinical signs / salivation + systemic / organ weight / liver / absolute
[38] = systemic / in life observation / body weight / body weight gain + systemic / in life observation / food consumption / food consumption
[39] = systemic / in life observation / body weight / body weight gain + systemic / in life observation / food consumption / food consumption + …
[40] = systemic / in life observation / body weight / body weight + systemic / in life observation / clinical signs / abnormal feces + systemic / …
[41] = systemic / in life observation / mortality / mortality + systemic / pathology gross / stomach / discolored + systemic / pathology gross / …
[42] = systemic / clinical chemistry / [other] / [other] + systemic / clinical chemistry / cytochrome p450, nos / cytochrome p450, nos + systemic…

## COC(=O)N(C(=O)N1CO[C@@]2(C(=O)OC)Cc3cc(Cl)ccc3C2=N1)c1ccc(OC(F)(F)F)cc1 [Indoxacarb]
Rat [1]; [22]
  LEL: 4.9 mg/kg/day
  LOAEL: 7.5 mg/kg/day
Rat [1]; [23]
  NEL: 2.5 mg/kg/day
  NOAEL: 3.7 mg/kg/day
Rat [2]; [24]
  LEL: 1.5 mg/kg/day
Rat [2]; [25]
  LOAEL: 6.25 mg/kg/day
  NEL: 0.75 mg/kg/day
  NOAEL: 3 mg/kg/day
Mouse [3]
  LEL: 13.8 mg/kg/day
  LOAEL: 13.8 mg/kg/day
  NEL: 2.63 mg/kg/day
  NOAEL: 2.63 mg/kg/day
Rat [4]; [26]
  LEL: 500 mg/kg/day
  LOAEL: > 1000 mg/kg/day
  NEL: 100 mg/kg/day
  NOAEL: ≥ 1000 mg/kg/day
Rat [4]; [27]
  LEL: 100 mg/kg/day
  LOAEL: 100 mg/kg/day
  NEL: 10 mg/kg/day
  NOAEL: 10 mg/kg/day
Rat [5]; [26]
  LEL: 4 mg/kg/day
  LOAEL: 4 mg/kg/day
  NEL: 2 mg/kg/day
  NOAEL: 2 mg/kg/day
Rat [5]; [27]
  LEL: 4 mg/kg/day
  LOAEL: 4 mg/kg/day
  NEL: 2 mg/kg/day
  NOAEL: 2 mg/kg/day
Rat [6]; [25]
  LOAEL: 3.78 mg/kg/day
  NOAEL: 2.13 mg/kg/day
Rat [6]; [28]
  LEL: 0.76 mg/kg/day
  NEL: < 0.76 mg/kg/day
Dog [7]
  LEL: 19 mg/kg/day
  LOAEL: 19 mg/kg/day
  NEL: 5 mg/kg/day
  NOAEL: 5 mg/kg/day
Dog [8]; [29]
  LOAEL: 18 mg/kg/day
  NOAEL: 2.3 mg/kg/day
Dog [8]; [30]
  LEL: 1.3 mg/kg/day
  NEL: < 1.3 mg/kg/day
Rat [9]; [24]
  LOAEL: 2.13 mg/kg/day
  NOAEL: 1.04 mg/kg/day
Rat [9]; [31]
  LEL: 0.798 mg/kg/day
Mouse [10]; [25]
  LOAEL: 30 mg/kg/day
  NOAEL: 16 mg/kg/day
Mouse [10]; [31]
  LEL: 12 mg/kg/day
Mouse [10]; systemic / pathology microscopic / spleen / pigmentation + systemic / pathology microscopic / spleen / hyperplasia
  NEL: 5.5 mg/kg/day
Rat [11]; [26]
  LEL: 4.14 mg/kg/day
  LOAEL: 4.14 mg/kg/day
  NEL: 2.18 mg/kg/day
  NOAEL: 2.18 mg/kg/day
Rat [11]; [27]
  LOAEL: 2.18 mg/kg/day
  NOAEL: 1.11 mg/kg/day
Rat [11]; [32]
  LEL: 1.11 mg/kg/day
  NEL: < 1.11 mg/kg/day
Rabbit [12]; [33]
  LEL: 1000 mg/kg/day
  LOAEL: 1000 mg/kg/day
  NEL: 500 mg/kg/day
  NOAEL: 500 mg/kg/day
Rabbit [12]; group: maternal, systemic / in life observation / body weight / body weight gain + systemic / in life observation / food consumption / food consumption
  LOAEL: 1000 mg/kg/day
Rabbit [12]; [34]
  LEL: 1000 mg/kg/day
  NEL: 500 mg/kg/day
  NOAEL: 500 mg/kg/day
Rat [13]; [35]
  LEL: 0.56 mg/kg/day
  NEL: < 0.56 mg/kg/day
Rat [13]; [25]
  LOAEL: 4.1 mg/kg/day
  NOAEL: 1.7 mg/kg/day

## CCC(CC)Nc1cc(C)nc(Oc2c(C)cc(C)cc2C)c1C
Rat [14]; [36]
  LOAEL: > 500 mg/kg/day
  NOAEL: ≥ 500 mg/kg/day
Rat [14]; [37]
  LEL: 250 mg/kg/day
  NEL: < 250 mg/kg/day
Rat [15]; [38]
  LEL: 1 mg/kg/day
  NEL: < 1 mg/kg/day
Rat [15]; [39]
  LOAEL: > 100 mg/kg/day
  NOAEL: ≥ 100 mg/kg/day
Dog [16]
  LEL: 5 mg/kg/day
  LOAEL: > 5 mg/kg/day
  NEL: 1 mg/kg/day
  NOAEL: ≥ 5 mg/kg/day
Dog [17]
  LEL: 20 mg/kg/day
  LOAEL: > 20 mg/kg/day
  NEL: 10 mg/kg/day
  NOAEL: ≥ 20 mg/kg/day
Rabbit [18]; [40]
  LOAEL: > 500 mg/kg/day
  NEL: 50 mg/kg/day
  NOAEL: ≥ 500 mg/kg/day
Rabbit [18]; systemic / in life observation / food consumption / food consumption
  LEL: 100 mg/kg/day
Rat [19]; systemic / in life observation / body weight / body weight + systemic / in life observation / body weight / body weight gain + systemic / …
  LEL: 100 mg/kg/day
Rat [19]; [41]
  LOAEL: > 1000 mg/kg/day
  NOAEL: ≥ 1000 mg/kg/day
Dog [20]
  LEL: 1 mg/kg/day
  LOAEL: > 1 mg/kg/day
  NEL: < 1 mg/kg/day
  NOAEL: ≥ 1 mg/kg/day
Dog [21]; [42]
  LOAEL: > 20 mg/kg/day
  NOAEL: ≥ 20 mg/kg/day
Dog [21]; systemic / in life observation / clinical signs / abnormal feces
  LEL: 2 mg/kg/day

From EPA's ToxRefDB 2
